Values quoted from earlier work as cited in publication PMC8819907 (Journal of Experimental & Clinical Cancer Research : CR, 2022).

Experiments:
KRAS-mutant NSCLC = tested on: KRAS-mutant NSCLC; design: method as in ref 24 (a number printed in a supplementary file, which may have a reference list of its own: not looked up in the article's list); details: cited from earlier work
[1] = tested on: patients with advanced solid tumors; design: method as in ref 27 (a number printed in a supplementary file, which may have a reference list of its own: not looked up in the article's list); details: cited from earlier work
[2] = tested on: metastatic biliary tract cancers; design: method as in ref 33,34 (a number printed in a supplementary file, which may have a reference list of its own: not looked up in the article's list); details: 3/25 response evaluable patients; cited from earlier work
[3] = tested on: recurrent low-grade serous carcinoma of the ovary or peritoneum; design: method as in ref 33,34 (a number printed in a supplementary file, which may have a reference list of its own: not looked up in the article's list); details: 8/52 patients; cited from earlier work
[4] = only detectable minor component in blood; cited from earlier work
[5] = design: method as in PMID 32696585; details: cited from earlier work

CC(=O)O[C@@]12CO[C@@H]1C[C@H](O)[C@@]1(C)C(=O)[C@H](O)C3=C(C)[C@@H](OC(=O)[C@H](O)[C@@H](NC(=O)OC(C)(C)C)c4ccccc4)C[C@@](O)([C@@H](OC(=O)c4ccccc4)[C@H]21)C3(C)C [docetaxel]
median PFS (KRAS-mutant NSCLC): 11.4 weeks | overall response rate (ORR) (KRAS-mutant NSCLC): 12%

Cn1ncc(Cl)c1-c1cc(C(=O)N[C@H](CN)Cc2ccc(F)c(F)c2)oc1Cl [GSK2141795]
RP2D for single agent [1]: 75 mg/day

Cn1cnc2c(F)c(Nc3ccc(Br)cc3Cl)c(C(=O)NOCCO)cc21 [selumetinib]
overall response rate [2]: 12% | overall response rate [3]: 15%

Cc1c(=O)n(C)c(Nc2ccc(I)cc2F)c2c(=O)n(C3CC3)c(=O)n(-c3cccc(N)c3)c12 [M5]
share of the blood radioactivity [4]: < 7%

O=C(c1ccc(F)c(F)c1Nc1ccc(I)cc1F)N1CC(O)([C@@H]2CCCCN2)C1 [cobimetinib]
total AUC0−∞ lower, severe hepatic impairment vs normal hepatic function [5]: ~30% | unbound AUC0−∞ higher, severe hepatic impairment vs normal hepatic function [5]: ~2 fold
